Measured values reported in patent US20190153021A1, “THERAPEUTIC COMPOUNDS” (UNIVERSITY OF IOWA RESEARCH FOUNDATION, priority 2015, published 2019).

What was measured:
[1] = simplified steroidal aglycone; cited from earlier work
[2] = In vivo efficacy of OSW-1
[3] = Metabolic stability and pharmacokinetics, cleavage of ester groups in mouse blood; type: in vitro ADME
[4] = test system: NCI 60 cell-line tumor panel; settings: cited from earlier work
dormant cancer cells = settings: independent of cell cycle; cited from earlier work

Row | pharmacokinetics (PK) [3] | metabolic stability: cleavage of the two ester groups ([3]; enzymes in mouse blood, gives major metabolite 2) | Compound | in vitro anticancer activity compared with compound 1 [1] | in vivo efficacy [2] | IC50 ([4]; mean over NCI 60-cell in vitro screen) | anticancer activities, times more potent than many well-known anticancer drugs in clinical use ([4]; relative potency) | concentration that effectively kills dormant cancer cells (dormant cancer cells)
1 | – | – | COc1ccc(C(=O)OC2C(OC3C(O)COC(O[C@H]4C[C@@H]5[C@H](CC[C@H]6[C@H]5CC=C5C[C@@H](O)CC[C@@]56C)[C@H]4[C@H](C)CCCC(C)C)C3OC(C)=O)OCC(O)C2O)cc1 (stereo partly shown) [Compound 3] | similar | – | – | – | –
2 | poor | quickly cleaved | COc1ccc(C(=O)O[C@H]2[C@H](O[C@@H]3[C@@H](OC(C)=O)[C@H](O[C@H]4C[C@H]5[C@@H]6CC=C7C[C@@H](O)CC[C@]7(C)[C@H]6CC[C@]5(C)[C@@]4(O)[C@H](C)C(=O)CCC(C)C)OC[C@@H]3O)OC[C@@H](O)[C@@H]2O)cc1 [OSW-1] | – | relatively weak | 0.78 nM | 10-100 times | sub-nM
